Results reported in patent US20110082130A1 (LIGAND PHARMACEUTICALS, INC., priority 2006, published 2011).

What follows are compounds tested against T1, chimeric human H3 receptor (Homo sapiens, UniProt Q9Y5N1) (assay: Chimeric human H3 receptor screening GTP binding assay (inhibition of histamine-stimulated GTP-gamma35S binding, Example 8)). Conditions: 4 μM of the compound, 1 μM histamine, "†" in Ki of Table II, read-out: percent inhibition of the signal obtained with 1 μM histamine.
T1 construct: made in house; host or cells: Sf9 insect cells (baculovirus); P2 membrane preparation
T1 sequence (Q9Y5N1 with tags, fused parts or gaps): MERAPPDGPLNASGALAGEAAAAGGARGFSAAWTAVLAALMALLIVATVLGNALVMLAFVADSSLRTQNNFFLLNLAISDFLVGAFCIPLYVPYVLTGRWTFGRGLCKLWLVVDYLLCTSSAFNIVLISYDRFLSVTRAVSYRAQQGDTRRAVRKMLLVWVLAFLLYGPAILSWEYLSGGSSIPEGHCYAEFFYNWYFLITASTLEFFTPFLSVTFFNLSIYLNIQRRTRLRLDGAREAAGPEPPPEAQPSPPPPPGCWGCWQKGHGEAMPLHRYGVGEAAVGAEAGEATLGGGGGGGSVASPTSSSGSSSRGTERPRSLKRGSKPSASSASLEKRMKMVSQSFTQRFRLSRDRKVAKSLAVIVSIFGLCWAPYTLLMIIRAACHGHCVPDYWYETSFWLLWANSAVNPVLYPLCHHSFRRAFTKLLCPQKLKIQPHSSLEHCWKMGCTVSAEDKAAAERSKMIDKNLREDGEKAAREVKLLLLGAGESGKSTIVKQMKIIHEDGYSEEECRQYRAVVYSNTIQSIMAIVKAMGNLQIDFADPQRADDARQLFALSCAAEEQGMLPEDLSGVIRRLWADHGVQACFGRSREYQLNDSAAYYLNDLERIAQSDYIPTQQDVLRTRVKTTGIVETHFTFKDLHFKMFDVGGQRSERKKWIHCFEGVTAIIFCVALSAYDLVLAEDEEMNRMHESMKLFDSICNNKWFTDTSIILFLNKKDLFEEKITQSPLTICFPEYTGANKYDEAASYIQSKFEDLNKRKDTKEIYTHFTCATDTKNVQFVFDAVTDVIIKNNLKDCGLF
Type: biochemical
Procedure: This Example illustrates a representative screening assay for evaluating inhibition of histamine-stimulated GTP-gamma^35S binding. Such GTP binding activity can be used to identify H3 antagonists and inverse agonists. A compound analyzed in this assay is referred to herein as a “test compound,” and the initial identification of antagonists and inverse agonists is performed using a test compound concentration of 4 μM.
Four independent baculoviral stocks (one directing the expression of the chimeric human H3 receptor and three directing the expression of each of the three subunits of a heterotrimeric G-protein) are used to infect a culture of Sf9 cells as described above. P2 membranes are prepared as described above, and are resuspended by Dounce homogenization (tight pestle) in GTP binding assay buffer (50 mM Tris pH 7.4, 120 mM NaCl, 5 mM MgCl2, 2 mM EGTA, 1 mg/ml BSA, 0.2 mg/ml bacitracin, 0.02 mg/ml aprotinin, 0.01 mg/ml saponin, 10 μM GDP) and added to assay tubes at a concentration of 35 μg protein/reaction tube. Non-radiolabeled test compounds are added to separate reactions at a concentration of 4 μM along with 1 μM histamine (agonist). Reactions are initiated by the addition of […] GTP-gamma^35S with a final assay volume of 0.20 ml.
After a 60-min incubation at room temperature, reactions are terminated by vacuum filtration over GF/C filters (pre-soaked in 50 mM Tris pH 7.4, 120 mM NaCl plus 0.1% BSA) followed by washing with ice-cold buffer (50 mM Tris pH 7.4, 120 mM NaCl). The amount of receptor-bound (and thereby membrane-bound) GTP-gamma^35S is determined by measuring the bound radioactivity, preferably by liquid scintillation spectrometry of the washed filters. Non-specific binding is determined using 10 uM GTP-gammaS and typically represents less than 5 percent of total binding. After subtraction of non-specific binding, data is expressed as percent inhibition of 1 μM histamine signal.
Neutral antagonists are those test compounds that reduce the histamine-stimulated GTP binding activity towards, but not below, baseline levels. In contrast, in the absence of added histamine, inverse agonists reduce the GTP binding activity of the receptor-containing membranes below baseline. Any test compound that elevates GTP binding activity above baseline in the absence of added histamine in this assay is defined as having agonist activity.
Work on CC(C)N1CCN(C(=O)CN2CCc3cc(-c4ccc(C(C)(C)C)cc4)ccc3C2)CC1 [Compound 474, 6-(4-tert-butylphenyl)-2-[2-(4-isopropylpiperazin-1-yl)-2-oxoethyl]-1,2,3,4-tetrahydroisoquinoline] yielded an inhibition at 4 µM of at least 90%.
With CC(C)N1CCN(C(=O)CN2CCc3cc(-c4cccc(F)c4)ccc3C2)CC1 [Compound 413, 6-(3-fluorophenyl)-2-[2-(4-isopropylpiperazin-1-yl)-2-oxoethyl]-1,2,3,4-tetrahydroisoquinoline] the inhibition at 4 µM was at least 90%.
In the case of O=C(CN1CCc2cc(-c3ccc(OC(F)(F)F)cc3)ccc2C1)N1CCN(C2CCCC2)CC1 [Compound 479, 2-[2-(4-cyclopentylpiperazin-1-yl)-2-oxoethyl]-6-[4-(trifluoromethoxy)phenyl]-1,2,3,4-tetrahydroisoquinoline], the inhibition at 4 µM is reported as at least 90%.
In the case of Cc1ccc(-c2ccc3c(c2)CCN(CC(=O)N2CCN(C4CCCCC4)CC2)C3)cc1 [Compound 437, 2-[2-(4-cyclohexylpiperazin-1-yl)-2-oxoethyl]-6-(4-methylphenyl)-1,2,3,4-tetrahydroisoquinoline], the inhibition at 4 µM is reported as at least 90%.
For CCCc1ccc(-c2ccc3c(c2)CCN(CC(=O)N2CCN(C(C)C)CC2)C3)cc1 [Compound 466, 2-[2-(4-isopropylpiperazin-1-yl)-2-oxoethyl]-6-(4-propylphenyl)-1,2,3,4-tetrahydroisoquinoline], the inhibition at 4 µM was at least 90%.
COc1cccc(-c2ccc3c(c2)CCN(CC(=O)N2CCN(C4CCCCC4)CC2)C3)c1 [Compound 477, 2-[2-(4-cyclohexylpiperazin-1-yl)-2-oxoethyl]-6-(3-methoxyphenyl)-1,2,3,4-tetrahydroisoquinoline] gave an inhibition at 4 µM of at least 90%.
Work on O=C(CN1CCc2cc(-c3ccccc3F)ccc2C1)N1CCN(C2CCCC2)CC1 [Compound 415, 2-[2-(4-cyclopentylpiperazin-1-yl)-2-oxoethyl]-6-(2-fluorophenyl)-1,2,3,4-tetrahydroisoquinoline] yielded an inhibition at 4 µM of at least 90%.
In the case of CCCc1ccc(-c2ccc3c(c2)CCN(CC(=O)N2CCN(C4CCC4)CC2)C3)cc1 [Compound 463, 2-[2-(4-cyclobutylpiperazin-1-yl)-2-oxoethyl]-6-(4-propylphenyl)-1,2,3,4-tetrahydroisoquinoline], the inhibition at 4 µM is reported as at least 90%.
CCc1cccc(-c2ccc3c(c2)CCN(CC(=O)N2CCN(C4CCCC4)CC2)C3)c1 [Compound 468, 2-[2-(4-cyclopentylpiperazin-1-yl)-2-oxoethyl]-6-(3-ethylphenyl)-1,2,3,4-tetrahydroisoquinoline] showed an inhibition at 4 µM of at least 90%.
In the case of CCc1cccc(-c2ccc3c(c2)CCN(CC(=O)N2CCN(C4CCC4)CC2)C3)c1 [Compound 467, 2-[2-(4-cyclobutylpiperazin-1-yl)-2-oxoethyl]-6-(3-ethylphenyl)-1,2,3,4-tetrahydroisoquinoline], the inhibition at 4 µM is reported as at least 90%.
With O=C(CN1CCc2cc(-c3cccc4c3oc3ccccc34)ccc2C1)N1CCN(C2CCCC2)CC1 [Compound 379, 2-[2-(4-cyclopentylpiperazin-1-yl)-2-oxoethyl]-6-dibenzo[b,d]furan-4-yl-1,2,3,4-tetrahydroisoquinoline] the inhibition at 4 µM was at least 90%.
Work on Cc1cc(-c2ccc3c(c2)CCN(CC(=O)N2CCN(C4CCC4)CC2)C3)ccc1F [Compound 429, 2-[2-(4-cyclobutylpiperazin-1-yl)-2-oxoethyl]-6-(4-fluoro-3-methylphenyl)-1,2,3,4-tetrahydroisoquinoline] yielded an inhibition at 4 µM of at least 90%.
For O=C(CN1CCc2cc(-c3ccc(OC(F)(F)F)cc3)ccc2C1)N1CCN(C2CCCCC2)CC1 [Compound 480, 2-[2-(4-cyclohexylpiperazin-1-yl)-2-oxoethyl]-6-[4-(trifluoromethoxy)phenyl]-1,2,3,4-tetrahydroisoquinoline], the inhibition at 4 µM was at least 90%.
For O=C(CN1CCc2cc(-c3ccccc3)ccc2C1)N1CCN(C2CCCCC2)CC1 [Compound 400, 2-[2-(4-cyclohexylpiperazin-1-yl)-2-oxoethyl]-6-phenyl-1,2,3,4-tetrahydroisoquinoline], the inhibition at 4 µM was at least 90%.
For Cc1cc(C)cc(-c2ccc3c(c2)CCN(CC(=O)N2CCN(C(C)C)CC2)C3)c1 [Compound 458, 6-(3,5-dimethylphenyl)-2-[2-(4-isopropylpiperazin-1-yl)-2-oxoethyl]-1,2,3,4-tetrahydroisoquinoline], the inhibition at 4 µM was at least 90%.

Same assay, conditions: Table II "Ki", symbol †, 4 μM of the compound, 1 μM histamine, read-out: percent inhibition of the signal obtained with 1 μM histamine
In the case of O=C(CN1CCc2cc(-c3cc(F)ccc3F)ccc2C1)N1CCN(C2CCC2)CC1 [Compound 582, 2-[2-(4-cyclobutylpiperazin-1-yl)-2-oxoethyl]-6-(2,5-difluorophenyl)-1,2,3,4-tetrahydroisoquinoline], the inhibition at 4 µM is reported as at least 90%.
O=C(CN1CCc2cc(-c3ccc(F)cc3F)ccc2C1)N1CCN(C2CCCCC2)CC1 [Compound 588, 2-[2-(4-cyclohexylpiperazin-1-yl)-2-oxoethyl]-6-(2,4-difluorophenyl)-1,2,3,4-tetrahydroisoquinoline] showed an inhibition at 4 µM of at least 90%.
For O=C(CN1CCc2cc(-c3ccc(F)c(F)c3)ccc2C1)N1CCN(C2CCC2)CC1 [Compound 589, 2-[2-(4-cyclobutylpiperazin-1-yl)-2-oxoethyl]-6-(3,4-difluorophenyl)-1,2,3,4-tetrahydroisoquinoline], the inhibition at 4 µM was at least 90%.
With CC(C)C(C)N1CCN(C(=O)CN2CCc3cc(-c4cncnc4)ccc3C2)CC1 (centres unmarked) [Compound 607, 2-{2-[4-(1,2-dimethylpropyl)piperazin-1-yl]-2-oxoethyl}-6-pyrimidin-5-yl-1,2,3,4-tetrahydroisoquinoline] the inhibition at 4 µM was at least 90%.
In the case of COc1ccc(C)cc1-c1ccc2c(c1)CCN(CC(=O)N1CCN(C3CCCC3)CC1)C2 [Compound 573, 2-[2-(4-cyclopentylpiperazin-1-yl)-2-oxoethyl]-6-(2-methoxy-5-methylphenyl)-1,2,3,4-tetrahydroisoquinoline], the inhibition at 4 µM is reported as at least 90%.
In the case of CSc1cccc(-c2ccc3c(c2)CCN(CC(=O)N2CCN(C(C)C)CC2)C3)c1 [Compound 497, 2-[2-(4-isopropylpiperazin-1-yl)-2-oxoethyl]-6-[3-(methylthio)phenyl]-1,2,3,4-tetrahydroisoquinoline], the inhibition at 4 µM is reported as at least 90%.
In the case of COc1ccc(C(C)C)cc1-c1ccc2c(c1)CCN(CC(=O)N1CCN(C3CCCC3)CC1)C2 [Compound 555, 2-[2-(4-cyclopentylpiperazin-1-yl)-2-oxoethyl]-6-(5-isopropyl-2-methoxyphenyl)-1,2,3,4-tetrahydroisoquinoline], the inhibition at 4 µM is reported as at least 90%.
CSc1cccc(-c2ccc3c(c2)CCN(CC(=O)N2CCN(C4CCCCC4)CC2)C3)c1 [Compound 496, 2-[2-(4-cyclohexylpiperazin-1-yl)-2-oxoethyl]-6-[3-(methylthio)phenyl]-1,2,3,4-tetrahydroisoquinoline] was tested, and the inhibition at 4 µM was at least 90%.
For CCN1CCN(C(=O)CN2CCc3cc(-c4cncnc4)ccc3C2)CC1 [Compound 603, 2-[2-(4-ethylpiperazin-1-yl)-2-oxoethyl]-6-pyrimidin-5-yl-1,2,3,4-tetrahydroisoquinoline], the inhibition at 4 µM was at least 90%.
With O=C(CN1CCc2cc(-c3cncnc3)ccc2C1)N1CCN(C2CCOCC2)CC1 [Compound 621, 2-{2-oxo-2-[4-(tetrahydro-2H-pyran-4-yl)piperazin-1-yl]ethyl}-6-pyrimidin-5-yl-1,2,3,4-tetrahydroisoquinoline] the inhibition at 4 µM was at least 90%.
COc1ccc(-c2ccc(-c3ccc4c(c3)CCN(CC(=O)N3CCN(C5CCC5)CC3)C4)cc2)cc1 [Compound 498, 2-[2-(4-cyclobutylpiperazin-1-yl)-2-oxoethyl]-6-(4′-methoxybiphenyl-4-yl)-1,2,3,4-tetrahydroisoquinoline] was tested, and the inhibition at 4 µM was at least 90%.
